Literature values in paper PMC12677607, “Identification of a Pair of Linear or Cyclic Naturally Inspired Bifunctional Lipopeptide Antibiotics That Overcome Antimicrobial Resistance” (Advanced Science, 2025).

How the values were obtained:
[1] = set-up: method as in earlier work; details: Figure S20; cited from earlier work
[2] = set-up: method as in earlier work; details: Figure S20; cited from earlier work; remark: listed apart in the source
[3] = tested on: Gram negative and positive bacteria; set-up: method as in 2 sources, one per row (each row's own in cited_ref): ref 49 (a number printed in a supplementary file, which may have a reference list of its own: not looked up in the article's list) ||| ref 50 (a number printed in a supplementary file, which may have a reference list of its own: not looked up in the article's list); details: Figure S20, known paired peptides; cited from earlier work
Gram negative bacteria = tested on: Gram negative bacteria; set-up: method as in 2 sources, one per row (each row's own in cited_ref): ref 27 (a number printed in a supplementary file, which may have a reference list of its own: not looked up in the article's list) ||| ref 26 = [26]; PMID 24281661; doi:10.1038/ja.2013.121; 26 S. Kozuma , Y. Hirota‐Takahata , D. Fukuda , N. Kuraya , M. Nakajima , O , A , J. Antibiot. (Tokyo) 2014 , 67 , 237 . 24281661 10.1038/ja.2013.121; details: Figure S20, known paired peptides; cited from earlier work
Excerpt: All 17 synAQUs were initially assayed for antimicrobial activity against four Gram‐negative bacteria, four Gram‐positive bacteria, and one fungal pathogen.

Substance	cytotoxic activity [1]	hemolytic activity [2]	antibacterial activity [3]	MIC, anti-Gram negative activity (Gram negative bacteria)
Bacaucin	Cyt ot oxic	He mo l y t i c	Broad antibacterial activity	–
Brevicidine	–	–	–	2 to 4 µg/mL
Laterocidine	–	–	–	2 to 4 µg/mL
Bacaucin-1	No cytotoxic activity	No hemolytic activity	Specific anti-bacterial activity against MR S A	–
